Active and inactive are the calls of the source.
How the values were obtained:
Protein skinhead-1 = target: T1, Protein skinhead-1 (Caenorhabditis elegans, UniProt P34707); type: functional
T1 sequence (P34707 whole entry): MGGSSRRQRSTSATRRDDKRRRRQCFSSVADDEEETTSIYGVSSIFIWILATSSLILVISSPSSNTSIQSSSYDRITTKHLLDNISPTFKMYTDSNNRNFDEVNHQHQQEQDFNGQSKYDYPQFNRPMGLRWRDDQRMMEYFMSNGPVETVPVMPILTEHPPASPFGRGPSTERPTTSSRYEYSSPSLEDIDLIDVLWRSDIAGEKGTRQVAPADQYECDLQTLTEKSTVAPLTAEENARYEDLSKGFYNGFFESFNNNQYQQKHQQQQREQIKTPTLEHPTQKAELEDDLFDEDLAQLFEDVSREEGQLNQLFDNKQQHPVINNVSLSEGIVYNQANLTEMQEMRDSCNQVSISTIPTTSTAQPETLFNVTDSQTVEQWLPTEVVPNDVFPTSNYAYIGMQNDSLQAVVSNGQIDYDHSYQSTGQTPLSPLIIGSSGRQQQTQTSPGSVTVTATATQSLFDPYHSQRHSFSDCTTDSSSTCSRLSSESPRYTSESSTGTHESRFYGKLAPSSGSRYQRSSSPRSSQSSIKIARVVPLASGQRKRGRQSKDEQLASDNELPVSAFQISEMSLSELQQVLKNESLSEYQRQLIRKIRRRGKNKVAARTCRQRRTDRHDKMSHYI

Cytochrome P450 2C19 = Cytochrome P450 2C19 (Homo sapiens, UniProt P33261); assay: Cytochrome panel assay with activity outcomes. Panel member name: p450-cyp2c19 Compounds with AC50 equal or less than 10 uM are considered active; type: functional; details: read-out: AC50
[1] = viability of uninfected HEp-2 cells – cell-based, HTS, cytotoxicity control for RSV inhibitor project, dose response (AID 2410); type: functional; details: human respiratory syncytial virus
[2] = microbe, parasite or virus in culture; type: functional; details: Mycobacterium tuberculosis
[3] = NIH3T3 cell viability loss – ATP luminescence, mouse fibroblasts, counter-screen, dose response (AID 2010); type: functional, cell-based;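 further: cells exposed to compound for about 90 hours before reading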
[4] = Trypanosoma cruzi growth suppression in host cells – NIH3T3 host cells, beta-gal luminescence, confirmation (AID 2044); type: functional, cell-based;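 further: intracellular parasites grown in NIH/3T3 mouse fibroblasts as host cells; luminescent beta-galactosidase reporter signal from transgenic T. cruzi replicating inside host cells; inhibitors lower the luminescence signal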
[5] = target: Heat shock protein HSP 90-alpha (Homo sapiens, UniProt P07900); type: functional, organism-based
[6] = loss of viability in HepG2 cells – cell-based, CellTiter-Glo, cherry-picked, cytotoxicity control for Shn3 inhibitor project, dose response (AID 624134); type: functional
[7] = reduction of Shn3 3'UTR-driven luciferase in osteoblasts – cell-based, Clone20 osteoblasts, firefly luciferase, cherry-picked, dose response (AID 624132); type: functional;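 further: firefly luciferase luminescence from reporter carrying the Shn3 3'UTR in osteoblasts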
[8] = non-specific 3'UTR reporter inhibition in Clone20-Shn3RL – cell-based, Renilla luciferase, cherry-picked, counter-screen for Shn3 inhibitor project, dose response (AID 624133); type: functional
Estrogen receptor beta = Estrogen receptor beta (Homo sapiens, UniProt Q92731);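 further: recombinant ER-beta bound to coactivator SRC1 peptide in presence of estradiol agonist; inhibitors block coactivator peptide binding and lower the FRET signal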
[9] = viability loss in THP-1 monocytes – THP-1 cells, cytotoxicity control for Vif-APOBEC3G degradation inhibitor project, dose response (AID 1117359); type: functional; details: THP-1
[10] = fluconazole-exposed Candida albicans growth modulators – fluorescence, retest, confirmation (AID 2467); type: functional, cell-based
[11] = NIH-3T3 fibroblast cytotoxicity, dose response, cytotoxicity control, cell-based, fluorescence, Alamar Blue, secondary assay (AID 2327); type: functional;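 further: NIH-3T3 mouse fibroblasts cultured with fluconazole at 8 µg/mL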
Beta-galactosidase = Beta-galactosidase (Escherichia coli, UniProt Q8VNN2); assay: PubChem AID 485352; type: functional
Leucine aminopeptidase = target: T2, Leucine aminopeptidase (Plasmodium falciparum 3D7, UniProt Q8IL11); assay: P. falciparum M17LAP inhibitors, primary screen, biochemical, fluorogenic H-Leu-NHMec substrate, 1536-well (AID 1619); type: functional
T2 sequence (Q8IL11 whole entry): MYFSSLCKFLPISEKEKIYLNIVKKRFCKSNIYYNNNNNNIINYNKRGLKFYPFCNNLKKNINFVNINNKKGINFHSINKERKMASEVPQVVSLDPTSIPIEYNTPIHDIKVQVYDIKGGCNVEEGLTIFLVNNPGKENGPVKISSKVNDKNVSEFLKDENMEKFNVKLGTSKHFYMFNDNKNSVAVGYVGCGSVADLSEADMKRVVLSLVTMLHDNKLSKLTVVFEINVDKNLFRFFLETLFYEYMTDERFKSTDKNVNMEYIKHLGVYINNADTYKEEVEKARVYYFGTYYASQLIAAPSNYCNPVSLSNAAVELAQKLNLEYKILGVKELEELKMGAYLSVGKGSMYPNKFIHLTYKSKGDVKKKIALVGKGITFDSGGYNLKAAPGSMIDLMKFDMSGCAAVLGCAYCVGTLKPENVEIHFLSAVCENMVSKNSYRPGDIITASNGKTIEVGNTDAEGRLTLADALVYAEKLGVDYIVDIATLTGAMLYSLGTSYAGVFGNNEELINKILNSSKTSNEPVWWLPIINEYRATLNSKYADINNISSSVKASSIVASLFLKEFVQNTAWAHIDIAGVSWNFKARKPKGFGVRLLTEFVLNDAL

[12] = target: T3, Type-1 angiotensin II receptor (Homo sapiens, UniProt P30556); assay: antagonism of angiotensin II type 1 receptor – cell-based, uHTS hits, selectivity assay for APJ receptor antagonist project, dose response (AID 463214); type: functional;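 further: antagonist potency against angiotensin II stimulated AT1 response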
T3 sequence (P30556 whole entry): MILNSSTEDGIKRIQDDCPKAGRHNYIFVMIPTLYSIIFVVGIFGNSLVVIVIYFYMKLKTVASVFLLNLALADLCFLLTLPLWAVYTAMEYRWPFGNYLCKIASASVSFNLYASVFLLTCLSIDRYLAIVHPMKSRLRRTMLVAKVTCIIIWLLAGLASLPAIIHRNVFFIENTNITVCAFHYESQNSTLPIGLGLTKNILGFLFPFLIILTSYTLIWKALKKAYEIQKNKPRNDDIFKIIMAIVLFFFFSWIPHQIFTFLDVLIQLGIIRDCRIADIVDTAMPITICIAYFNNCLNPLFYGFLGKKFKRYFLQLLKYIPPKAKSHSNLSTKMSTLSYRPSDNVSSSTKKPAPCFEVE

[13] = target: FAD-linked sulfhydryl oxidase ALR (Homo sapiens, UniProt P55789); assay: ALR-catalysed DTT oxidation blockers – biochemical, H2O2 detection, luminescence, cherry-pick, dose response (AID 493248)
[14] = target: T4, Rac GTPase-activating protein 1 (Homo sapiens, UniProt Q9H0H5); assay: blockers of MgcRacGAP-driven Rac1 GTP hydrolysis – biochemical, ADP Hunter fluorescence, primary and confirmatory, confirmation (AID 624330); type: functional
T4 sequence (Q9H0H5 whole entry): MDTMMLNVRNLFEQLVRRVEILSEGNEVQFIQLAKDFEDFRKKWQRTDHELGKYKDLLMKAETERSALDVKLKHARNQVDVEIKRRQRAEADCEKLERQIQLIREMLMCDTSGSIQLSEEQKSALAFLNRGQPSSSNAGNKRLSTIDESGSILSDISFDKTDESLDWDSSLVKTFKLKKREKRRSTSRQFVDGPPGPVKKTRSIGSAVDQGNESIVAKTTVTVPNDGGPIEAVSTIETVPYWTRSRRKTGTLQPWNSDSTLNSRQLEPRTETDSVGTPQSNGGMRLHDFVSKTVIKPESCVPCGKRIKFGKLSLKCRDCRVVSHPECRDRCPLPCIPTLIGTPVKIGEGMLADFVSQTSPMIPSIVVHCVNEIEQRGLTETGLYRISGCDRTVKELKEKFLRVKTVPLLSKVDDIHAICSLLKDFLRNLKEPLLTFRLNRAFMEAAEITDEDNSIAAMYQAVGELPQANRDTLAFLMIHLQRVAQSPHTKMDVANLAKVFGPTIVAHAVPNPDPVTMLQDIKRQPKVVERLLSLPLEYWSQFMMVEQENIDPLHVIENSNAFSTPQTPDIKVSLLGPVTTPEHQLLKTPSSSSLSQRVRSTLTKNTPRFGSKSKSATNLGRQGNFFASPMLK

[15] = intracellular Trypanosoma cruzi inhibitors in host cells – cell-based, plate reader, cherry-pick samples, set 3, dose response (AID 651818); type: functional;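 further: compounds incubated with infected cells for about four days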
[16] = OVCAR8 cell viability loss – plate reader, dry powder samples, PAX8 project, dose response (AID 743197); type: functional, cell-based; details: OVCAR-8
Paired box protein Pax-8 = Paired box protein Pax-8 (Homo sapiens, UniProt Q06710); assay: PAX8 transcriptional activity inhibition in RMG-I – RMG-I cells, luciferase, cherry-pick, dose response (AID 687027); type: functional, cell-based;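 further: luciferase reporter driven by Pax8 target thyroperoxidase promoter measured by SteadyGlo luminescence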
[17] = OVCAR-3 cell viability loss – plate reader, dry powder samples, PAX8 inhibitor project, dose response (AID 743044); type: functional, cell-based
[18] = viability of HCT116 lacking mutant beta-catenin – cell-based, human colon tumor, dose response (AID 1045); type: functional;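 further: HCT116 colon tumor cells with beta catenin knocked out; cells exposed to compound for 60 hours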
[19] = viability of PTEN-deleted HCT116 cells – cell-based, HCT116 PTEN knockout, dose response (AID 1047); type: functional;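 further: HCT116 colon tumor cells with PTEN knocked out; cells exposed to compound for 60 hours before readout; potency for loss of cell viability measured by luminescence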

Chain of Paired box protein Pax-8 (Q06710 whole entry): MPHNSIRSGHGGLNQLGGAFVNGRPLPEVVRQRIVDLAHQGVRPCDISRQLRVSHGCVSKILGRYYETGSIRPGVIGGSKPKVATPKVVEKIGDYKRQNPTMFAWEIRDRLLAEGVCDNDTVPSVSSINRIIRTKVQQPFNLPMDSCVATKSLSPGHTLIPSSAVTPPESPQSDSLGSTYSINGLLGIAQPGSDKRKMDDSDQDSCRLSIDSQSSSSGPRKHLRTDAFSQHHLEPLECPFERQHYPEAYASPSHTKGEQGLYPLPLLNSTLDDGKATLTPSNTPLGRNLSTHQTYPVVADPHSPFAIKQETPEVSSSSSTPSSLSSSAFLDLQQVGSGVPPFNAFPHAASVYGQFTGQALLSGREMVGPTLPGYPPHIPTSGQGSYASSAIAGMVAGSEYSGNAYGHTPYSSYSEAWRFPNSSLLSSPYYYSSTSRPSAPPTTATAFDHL
Chain of FAD-linked sulfhydryl oxidase ALR (P55789 whole entry): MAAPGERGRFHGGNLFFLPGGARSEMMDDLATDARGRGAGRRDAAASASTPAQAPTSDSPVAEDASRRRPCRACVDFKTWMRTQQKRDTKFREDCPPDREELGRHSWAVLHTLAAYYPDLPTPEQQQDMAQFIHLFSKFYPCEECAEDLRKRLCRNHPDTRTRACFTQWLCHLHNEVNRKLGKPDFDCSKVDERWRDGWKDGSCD
Chain of Beta-galactosidase (Q8VNN2 whole entry): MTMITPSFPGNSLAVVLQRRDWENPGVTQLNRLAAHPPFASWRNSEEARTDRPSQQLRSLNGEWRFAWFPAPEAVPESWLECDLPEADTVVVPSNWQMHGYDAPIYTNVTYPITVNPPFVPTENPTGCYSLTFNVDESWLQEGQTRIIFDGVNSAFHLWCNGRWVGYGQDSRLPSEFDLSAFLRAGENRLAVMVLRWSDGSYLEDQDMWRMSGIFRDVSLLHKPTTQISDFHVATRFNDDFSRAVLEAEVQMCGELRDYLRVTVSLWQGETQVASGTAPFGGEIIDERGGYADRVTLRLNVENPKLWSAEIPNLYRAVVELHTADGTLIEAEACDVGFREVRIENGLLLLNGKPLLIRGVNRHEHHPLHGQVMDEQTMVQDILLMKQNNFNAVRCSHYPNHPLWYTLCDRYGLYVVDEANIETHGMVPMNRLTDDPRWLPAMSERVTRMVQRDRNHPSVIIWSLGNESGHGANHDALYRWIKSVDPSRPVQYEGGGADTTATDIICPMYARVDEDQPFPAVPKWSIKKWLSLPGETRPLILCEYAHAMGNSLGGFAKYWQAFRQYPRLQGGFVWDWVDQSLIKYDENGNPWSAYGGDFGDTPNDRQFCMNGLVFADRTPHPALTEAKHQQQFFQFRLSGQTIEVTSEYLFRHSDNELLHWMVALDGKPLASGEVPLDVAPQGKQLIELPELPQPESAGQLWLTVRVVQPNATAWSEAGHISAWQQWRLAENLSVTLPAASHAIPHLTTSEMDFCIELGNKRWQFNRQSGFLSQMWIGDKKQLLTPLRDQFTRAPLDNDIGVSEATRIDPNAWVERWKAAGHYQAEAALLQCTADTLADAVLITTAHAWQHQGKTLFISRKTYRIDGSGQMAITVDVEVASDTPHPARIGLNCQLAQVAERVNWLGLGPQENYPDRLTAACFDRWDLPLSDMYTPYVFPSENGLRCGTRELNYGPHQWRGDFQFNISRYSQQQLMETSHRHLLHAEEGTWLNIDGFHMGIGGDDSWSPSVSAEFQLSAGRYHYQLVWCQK
Chain of Estrogen receptor beta (Q92731 whole entry): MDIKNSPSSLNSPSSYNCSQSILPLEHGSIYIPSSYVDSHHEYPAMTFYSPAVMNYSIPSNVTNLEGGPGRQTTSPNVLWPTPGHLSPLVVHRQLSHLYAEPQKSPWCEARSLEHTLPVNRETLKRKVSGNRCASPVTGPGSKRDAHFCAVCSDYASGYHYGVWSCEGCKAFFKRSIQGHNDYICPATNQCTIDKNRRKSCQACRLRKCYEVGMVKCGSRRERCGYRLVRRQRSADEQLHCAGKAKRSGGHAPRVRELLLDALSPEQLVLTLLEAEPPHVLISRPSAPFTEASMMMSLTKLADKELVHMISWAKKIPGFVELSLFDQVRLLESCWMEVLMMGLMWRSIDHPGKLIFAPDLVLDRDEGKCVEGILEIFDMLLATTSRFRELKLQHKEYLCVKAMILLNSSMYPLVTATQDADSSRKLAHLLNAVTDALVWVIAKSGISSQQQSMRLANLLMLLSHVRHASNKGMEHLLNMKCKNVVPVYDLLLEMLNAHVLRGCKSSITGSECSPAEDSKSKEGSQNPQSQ
Chain of Cytochrome P450 2C19 (P33261 whole entry): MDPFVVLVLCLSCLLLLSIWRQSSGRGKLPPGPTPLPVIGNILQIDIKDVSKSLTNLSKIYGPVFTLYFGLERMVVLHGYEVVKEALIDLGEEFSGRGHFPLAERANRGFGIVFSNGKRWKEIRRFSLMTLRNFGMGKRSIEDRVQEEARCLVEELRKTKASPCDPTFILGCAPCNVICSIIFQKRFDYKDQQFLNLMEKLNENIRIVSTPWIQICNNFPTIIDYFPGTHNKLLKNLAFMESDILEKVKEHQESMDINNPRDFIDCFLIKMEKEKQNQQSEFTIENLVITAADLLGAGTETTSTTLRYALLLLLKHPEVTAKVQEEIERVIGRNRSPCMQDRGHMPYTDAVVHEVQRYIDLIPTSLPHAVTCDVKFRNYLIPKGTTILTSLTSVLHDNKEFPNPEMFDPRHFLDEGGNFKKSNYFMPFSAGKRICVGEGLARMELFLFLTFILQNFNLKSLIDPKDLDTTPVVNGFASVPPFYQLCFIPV

With CCOc1ccc2nc(NC(=O)c3ccc(S(=O)(=O)N4CCOCC4)cc3)sc2c1 the IC50 (Protein skinhead-1) was > 100 µM (inactive) and the AC50 (Cytochrome P450 2C19) was 2.82 µM (inconclusive).
With O=C(Nc1ccc(SC(F)F)cc1)c1ccccc1F the IC50 (Protein skinhead-1) was 23.1 µM (active) and the CC50 [1] was > 50 µM (active).
With CC1(c2cc([N+](=O)[O-])cc([N+](=O)[O-])c2)CC(C)(C)N(C(=O)c2ccccc2)c2ccccc21 (centres undefined) the CC50 [2] was > 40 µM (active), the EC50 [3] was 10.7 µM (active) and the EC50 [4] was 0.17 µM (active).
In the case of Cc1cccc2cc(CN(Cc3nnnn3C3CCCCC3)C3CCCC3)c3nnnn3c12, the AC50 [5] is reported as 2.18 µM (active).
For COc1ccc(-n2nnnc2-c2cnc(N3CCCC3)nc2C(F)(F)F)cc1, the AC50 [6] was 50.8 µM (active), the AC50 [7] was 4.75 µM (active) and the AC50 [8] was 4.77 µM (active).
With c1ccc(-c2nc(-c3ccncc3)no2)cc1 the IC50 (Protein skinhead-1) was 16.3 µM (active).
For O=C(NCc1ccc2c(c1)OCO2)c1ccc(Br)cc1, the AC50 [5] was 4.38 µM (active).
In the case of C=CCn1c(SCc2cc(C(=O)OC)c(C)o2)nnc1-c1ccncc1, the IC50 (Estrogen receptor beta) is reported as > 50 µM (not active).
For CCCCc1ccc(NC(=O)CC(C)(C)C)cc1, the CC50 [9] was > 40 µM (active).
With COC(=O)c1ccc(C(=O)OC)c(NC(=O)CSc2cccc[n+]2[O-])c1 the CC50 [2] was > 40 µM (active), the EC50 [10] was 1.34 µM (active) and the EC50 [11] was > 160 µM (inconclusive).
For COc1ccccc1NC(=O)c1ccc(CN2CCOCC2)cc1, the IC50 (Protein skinhead-1) was > 100 µM (inactive).
In the case of CCN(CC)CC(=O)c1ccc(-c2ccccc2)cc1, the EC50 (Beta-galactosidase) is reported as > 40 µM (inactive), the IC50 (Leucine aminopeptidase) is reported as 60.2 µM (active) and the IC50 [12] is reported as 18.8 µM (active).
For O=S(=O)(c1ccc(N2CCCC2)cc1)C(F)(F)F, the IC50 (Protein skinhead-1) was > 100 µM (inactive).
With Nc1cc([N+](=O)[O-])ccc1Nc1ccc(O)cc1 the CC50 [2] was > 40 µM (active), the AC50 [13] was 0.269 µM (active) and the IC50 [14] was 38.2 µM (active).
In the case of Cc1sc(NC(=O)C2=COCCO2)nc1-c1ccc(Cl)cc1, the IC50 (Protein skinhead-1) is reported as > 100 µM (inactive).
In the case of C[C@H]1CN([C@@H](C)CO)C(=O)Cc2cc(NC(=O)Nc3cccc4ccccc34)ccc2O[C@@H]1CN(C)Cc1ccc(C(F)(F)F)cc1, the AC50 [15] is reported as 2.3 µM (active).
For Cc1cc(C(=O)Nc2cccc3c2O[C@@H](CN(C)Cc2ccc(C(=O)Nc4ccccc4N)cc2)[C@@H](C)CN([C@H](C)CO)C3=O)n(C)n1, the AC50 [15] was 2.45 µM (active).
For C[C@@H]1CN([C@@H](C)CO)C(=O)Cc2cc(NC(=O)Nc3ccc(C(F)(F)F)cc3)ccc2O[C@@H]1CN(C)Cc1ccc(Cl)c(Cl)c1, the AC50 [15] was 1.85 µM (active).
For C[C@H](CO)N1C[C@H](C)[C@H](CN(C)S(=O)(=O)c2cccs2)Oc2c(NC(=O)c3cnccn3)cccc2C1=O, the AC50 [15] was 2.44 µM (active).
In the case of C[C@@H]1CN([C@H](C)CO)C(=O)c2cccc(NC(=O)Nc3ccc(C(F)(F)F)cc3)c2O[C@@H]1CN(C)Cc1ccc(Cl)c(Cl)c1, the AC50 [15] is reported as 2.26 µM (active).
For C[C@H](CO)N1C[C@H](C)[C@H](CN(C)Cc2ccc(Oc3ccccc3)cc2)Oc2c(NC(=O)CCCCCC(=O)Nc3ccccc3N)cccc2C1=O, the AC50 [15] was 2.36 µM (active).
With C[C@H]1CN([C@@H](C)CO)C(=O)c2cc(NS(=O)(=O)c3ccc(Cl)cc3)ccc2O[C@H]1CN(C)Cc1ccc(Cl)c(Cl)c1 the AC50 [16] was > 70 µM (inactive) and the AC50 (Paired box protein Pax-8) was 7.5 µM (active).
In the case of C[C@@H]1CN([C@H](C)CO)C(=O)c2cc(NC(=O)Nc3ccc(C(F)(F)F)cc3)ccc2O[C@@H](C)CCCCO[C@H]1CN(C)C(=O)NC1CCCCC1, the AC50 [16] is reported as 47.2 µM (active), the AC50 (Paired box protein Pax-8) is reported as 2.8 µM (active) and the AC50 [17] is reported as 27.4 µM (active).
In the case of C[C@H](CO)N1C[C@H](C)[C@@H](CN(C)C(=O)C2CCCCC2)OCCCC[C@H](C)Oc2ccc(NS(=O)(=O)c3ccc(Cl)cc3)cc2C1=O, the AC50 (Paired box protein Pax-8) is reported as 8.51 µM (active) and the AC50 [17] is reported as 24.4 µM (active).
With C/C(=C\C(=S)Nc1ccccc1)Nc1ccc2ccccc2c1 the CC50 [2] was 36.2 µM (active).
With CC(C)N(C(=O)CO/N=C/c1cccc([N+](=O)[O-])c1)C(C)C the CC50 [9] was > 40 µM (active).
With CCNc1nc(NC(C)(C)C)nc(N2CCCC2)n1 the EC50 [18] was 32.9 µM (active) and the EC50 [19] was 25 µM (active).

— ChEMBL document CHEMBL1201862, “PubChem BioAssay data set” (2004)
